Experimental findings from article PMC7346113, “Screening of Natural Stilbene Oligomers from Vitis vinifera for Anticancer Activity on Human Hepatocellular Carcinoma Cells” (Antioxidants, 2020) are described below.

What all share (format): cell-based, human
Assay [1] has as its system Bax and Bcl-2 expression in HepG2 cells. Briefly: Western blot analysis of Bax and Bcl-2 expression. The settings on record: 24 h. The procedure: HepG2 cells were seeded in Petri dishes, incubated for 24 h and then treated with 5 and 10 µM R2-viniferin. Following 24 h of treatment, the cells were lysed in ice for 30 min with lysis buffer (20 mM HEPES pH 7.5, 1 mM NaF, 10 mM EGTA, 40 mM β-glycerophosphate, 1% NP-40, 2.5 mM MgCl2, 2 mM orthovanadate, and 1 mM DTT) to which 10 μL/mL of a protease inhibitor cocktail (Sigma-Aldrich, St Louis, USA) was added just before use. Cellular fragments were removed by centrifugation at 12,000× g for 10 min at 4 °C, and total protein concentration was determined by Bradford assay. The cellular protein extracts were boiled at 95 °C for 5 min in Laemmli buffer and separated by sodium dodecyl sulfate–polyacrylamide gel electrophoresis in 15% polyacrylamide gels. Proteins were transferred onto polyvinylidene difluoride (PVDF) membranes by electro-blotting with constant amperage (1 mA/cm^2) for 2 h in a wet chamber. After blocking for 1 h in 5% bovine serum albumin (BSA) Tris-buffered saline containing Tween 20 at room temperature, membranes were incubated overnight at 4 °C with antibodies to Bax (Santa Cruz Biotechnology, 1:500), Bcl-2 (Santa Cruz Biotechnology, 1:500) and glyceraldehyde-3-phosphate dehydrogenase (GAPDH, Abcam, 1:2000). After washing, membranes were probed with their corresponding secondary antibody conjugated to horseradish peroxidase for 1 h at room temperature. Specific proteins were detected using the enhanced chemiluminescence (ECL) substrate kit (Clarity Western ECL substrate, Bio-Rad, Hercules, California, USA) and the blots were imaged with the C-DiGit LI-COR blot scanner (Bonsai Advanced technologies S.L. Madrid, Spain). Intensities of target protein bands were determined by densitometry and normalized to the intensity of the loading control GAPDH protein.
A general note: A western blot detects proteins with antibodies after separation by electrophoresis.

Assay [2] has as its system intracellular ROS in HepG2. The assay is described as follows: Intracellular ROS, H2DCF-DA assay, flow cytometry. The procedure:
Intracellular levels of reactive oxygen species (ROS) were measured using the cell-permeant 2’,7’ dichlorodihydrofluorescein diacetate (H2DCF-DA) probe (Molecular Probes, Eugene, OR, USA), which permeates living cells and is deacetylated and oxidized upon ROS exposure inside the cell, forming the fluorescent 2’,7’-dichlorofluorescein (DCF).
HepG2 cells were cultured in a 6-well cell culture plate at a density of 2 × 10^5 cells per well 24 h before starting the treatment with R2-viniferin. The medium was renewed and cells were incubated with R2-viniferin as described above. After treatment, cells were washed and incubated with 20 μM H2DCF-DA or 4 μM MitoSOX™ for 30 min at 37 °C in the dark. The probe solution was then withdrawn and, after washing with PBS, the cells were trypsinized. The fluorescence intensity from living cells was measured by flow cytometry (DCF λex = 485/20 and λem = 528/20, MitoSOX λex = 485/20 and λem = 620/20) in a Beckman Coulter Gallios Flow cytometer in the General Research Services SGIker of the UPV/EHU. At least 10,000 events were detected. Data obtained from flow cytometry were analyzed using Summit 4.3 software (Dako, Hovedstaden, Denmark). Intracellular ROS and mitochondrial O2^− were expressed as the percentage of the fluorescence intensity in control cells at the same time of incubation.
(Flow cytometry measures light scatter and fluorescence of single cells or particles in a stream.)

The subject of another assay is Hep3B. The assay is described as follows: Cell cycle analysis by flow cytometry (propidium iodide), Hep3B. The settings on record: 10 µM; for Cell cycle G0/G1 (percentage of cells) / Cell cycle G2/M (percentage of cells) / Cell cycle S (percentage of cells) / SubG0 (percentage of total cells): mean ± SE. The procedure: Exponentially growing cells were seeded in 6-wells plates (200,000 cells HepG2 and 180,000 cells Hep3B) 24 h before R2-viniferin treatment. On the day of treatment, the culture medium was replaced with culture medium containing R2-viniferin or vehicle solution (control).
After a treatment, cells were detached by trypsinization and fixed overnight at 4 °C in 70% ice-cold ethanol diluted in phosphate buffer saline (PBS). The ethanol was then discarded and the cells were washed with ice-cold PBS and finally stained with 25 μg/mL of propidium iodide (Sigma-Aldrich, St Louis, MO, USA) in the presence of 200 μg/mL ribonuclease A (Roche Biochemicals, Indianapolis, IN, USA) for 30 min at room temperature in the dark. Flow cytometry analysis (Beckman Coulter Gallios) was carried out from a total number of 10,000 events acquired in the General Research Services SGIker of the UPV/EHU. Analysis of the data was performed using Summit 4.3 software (Dako, Glostrup, Hovedstaden, Denmark).

Take `Oc1ccc([C@H]2c3c(O)cc(O)cc3[C@H]3c4c(cc(O)cc4[C@@H]2c2cc(/C=C/c4cc(O)cc5c4[C@H](c4cc(O)cc(O)c4)[C@@H](c4ccc(O)cc4)O5)ccc2O)O[C@@H]3c2ccc(O)cc2)cc1` [R2-Viniferin]: in assay [1] (HepG2, 5 µM), the “Bax/Bcl-2 ratio increase over control” value is reported as 39%. Also, the “Bax/Bcl-2 ratio increase over control” value in assay [1] (HepG2, 10 µM) worked out at 123%. Also, in assay [1] (HepG2, 5 and 10 µM), the “Expression of anti-apoptotic Bcl-2 proteins” value is given as “downregulated” and the “Expression of proapoptotic Bax protein” value is reported as “upregulated”. For the same compound, the “Effect on intracellular ROS concentration” value in assay [2] (HepG2, 5 and 10 µM, from the first time assayed) is on record as “increased the intracellular ROS concentration dose-dependently”. Moreover, the “Effect on intracellular ROS” value in assay [2] (HepG2, highest concentration used (10 µM)) is “ROS remained significantly elevated up to 72 h”. The “Effect on cell cycle” value with Hep3B was “did not alter cell cycle”. In addition, in the assay on Hep3B (24 h), the “Cell cycle G0/G1 (percentage of cells)” value was 63.6 ± 8.0%, the “Cell cycle G2/M (percentage of cells)” value amounted to 20.7 ± 6.1%, the “Cell cycle S (percentage of cells)” value came to 15.7 ± 3.7% and the “SubG0 (percentage of total cells)” value was 2.0 ± 0.6%. In the assay with Hep3B (48 h), the “Cell cycle G0/G1 (percentage of cells)” value was found to be 73.7 ± 3.4%, the “Cell cycle G2/M (percentage of cells)” value turned out to be 16.5 ± 2.0%, the “Cell cycle S (percentage of cells)” value is reported as 10.4 ± 1.6% and the “SubG0 (percentage of total cells)” value was 1.8 ± 0.4%. In the assay on Hep3B (72 h), the “Cell cycle G0/G1 (percentage of cells)” value was determined as 75.5 ± 3.9%, the “Cell cycle G2/M (percentage of cells)” value came to 14.7 ± 2.9%, the “Cell cycle S (percentage of cells)” value was 9.8 ± 1.2% and the “SubG0 (percentage of total cells)” value stood at 3.3 ± 0.7%.
